The source made the active and inactive calls. The rule behind the calls is not given here.
Assays:
[1] = system: Canis familiaris; assay: Diuretic effect in mongrel dog assessed as urinary excretion of Na+ at 1 mg/kg, iv after 3 hrs (reference value: 0.10 +/- 0.02 mequiv/kg); assay type: functional, Canis lupus familiaris, Urine
[2] = system: Canis familiaris; assay: Diuretic effect in mongrel dog assessed as urinary excretion of Cl- at 1 mg/kg, iv after 3 hrs (reference value: 0.08 +/- 0.02 mequiv/kg); assay type: functional, Canis lupus familiaris, Urine
[3] = system: Canis familiaris; assay: Diuretic effect in mongrel dog assessed as urinary excretion of water at 1 mg/kg, iv after 3 hrs (reference value: 0.93 +/- 0.35 ml/kg); assay type: functional, Canis lupus familiaris, Urine
[4] = system: Canis familiaris; assay: Diuretic effect in mongrel dog assessed as urinary excretion of K+ at 1 mg/kg, iv after 3 hrs (reference value: 0.16 +/- 0.01 mequiv/kg); assay type: functional, Canis lupus familiaris, Urine
[5] = system: Canis familiaris; assay: Diuretic effect in mongrel dog assessed as urinary excretion of Na+ at 0.25 mg/kg, iv after 3 hrs (reference value: 0.10 +/- 0.02 mequiv/kg); assay type: functional, Canis lupus familiaris, Urine
[6] = system: Canis familiaris; assay: Diuretic effect in mongrel dog assessed as urinary excretion of K+ at 0.25 mg/kg, iv after 3 hrs (reference value: 0.16 +/- 0.01 mequiv/kg); assay type: functional, Canis lupus familiaris, Urine
[7] = system: Canis familiaris; assay: Diuretic effect in mongrel dog assessed as urinary excretion of Cl- at 0.25 mg/kg, iv after 3 hrs (reference value: 0.08 +/- 0.02 mequiv/kg); assay type: functional, Canis lupus familiaris, Urine
[8] = system: Canis familiaris; assay: Diuretic effect in mongrel dog assessed as urinary excretion of water at 0.25 mg/kg, iv after 3 hrs (reference value: 0.93 +/- 0.35 ml/kg); assay type: functional, Canis lupus familiaris, Urine
[9] = system: Canis familiaris; assay: Diuretic effect in mongrel dog assessed as urinary excretion of K+ at 10 mg/kg, iv after 3 hrs (reference value: 0.16 +/- 0.01 mequiv/kg); assay type: functional, Canis lupus familiaris, Urine
[10] = system: Canis familiaris; assay: Diuretic effect in mongrel dog assessed as urinary excretion of water at 10 mg/kg, iv after 3 hrs (reference value: 0.93 +/- 0.35 ml/kg); assay type: functional, Canis lupus familiaris, Urine
[11] = system: Canis familiaris; assay: Diuretic effect in mongrel dog assessed as urinary excretion of Na+ at 10 mg/kg, iv after 3 hrs (reference value: 0.10 +/- 0.02 mequiv/kg); assay type: functional, Canis lupus familiaris, Urine
[12] = system: Canis familiaris; assay: Diuretic effect in mongrel dog assessed as urinary excretion of Cl- at 10 mg/kg, iv after 3 hrs (reference value: 0.08 +/- 0.02 mequiv/kg); assay type: functional, Canis lupus familiaris, Urine
[13] = system: Canis familiaris; assay: Diuretic effect in mongrel dog assessed as urinary excretion of Cl- at 1 mg/kg, po after 3 hrs (reference value: 0.08 +/- 0.02 mequiv/kg); assay type: functional, Canis lupus familiaris, Urine
[14] = system: Canis familiaris; assay: Diuretic effect in mongrel dog assessed as urinary excretion of Na+ at 1 mg/kg, po after 3 hrs (reference value: 0.10 +/- 0.02 mequiv/kg); assay type: functional, Canis lupus familiaris, Urine
[15] = system: Canis familiaris; assay: Diuretic effect in mongrel dog assessed as urinary excretion of K+ at 1 mg/kg, po after 3 hrs (reference value: 0.16 +/- 0.01 mequiv/kg); assay type: functional, Canis lupus familiaris, Urine
[16] = system: Canis familiaris; assay: Diuretic effect in mongrel dog assessed as urinary excretion of water at 1 mg/kg, po after 3 hrs (reference value: 0.93 +/- 0.35 ml/kg); assay type: functional, Canis lupus familiaris, Urine
[17] = system: Canis familiaris; assay: Diuretic effect in mongrel dog assessed as urinary excretion of Cl- at 1 mg/kg, po after 3 hrs (reference value: 0.08 +/- 0.02 mequiv/kg)
[18] = system: Canis familiaris; assay: Diuretic effect in mongrel dog assessed as urinary excretion of water at 0.25 mg/kg, po after 3 hrs (reference value: 0.93 +/- 0.35 ml/kg); assay type: functional, Canis lupus familiaris, Urine
[19] = system: Canis familiaris; assay: Diuretic effect in mongrel dog assessed as urinary excretion of K+ at 0.25 mg/kg, po after 3 hrs (reference value: 0.16 +/- 0.01 mequiv/kg); assay type: functional, Canis lupus familiaris, Urine
[20] = system: Canis familiaris; assay: Diuretic effect in mongrel dog assessed as urinary excretion of Cl- at 0.25 mg/kg, po after 3 hrs (reference value: 0.08 +/- 0.02 mequiv/kg); assay type: functional, Canis lupus familiaris, Urine
[21] = system: Canis familiaris; assay: Diuretic effect in mongrel dog assessed as urinary excretion of Na+ at 0.25 mg/kg, po after 3 hrs (reference value: 0.10 +/- 0.02 mequiv/kg); assay type: functional, Canis lupus familiaris, Urine

SMILES	Activity [1] [milliequivalent/kg]	Activity [2] [milliequivalent/kg]	Activity [3] [mL/kg]	Activity [4] [milliequivalent/kg]	Activity ([3]; Canis lupus familiaris, Urine)	also measured
O=CNc1cc(C(=O)O)cc(NCc2ccccc2)c1-c1ccccc1	1.6	1.7	12	0.43		
O=CNc1cc(C(=O)O)cc(SCc2ccsc2)c1Oc1ccccc1	1.3	1.9	11	0.45		
O=CNc1cc(C(=O)O)cc(NCc2ccccc2)c1Oc1ccccc1	1.3	1.3	8	0.26		Activity [5]: 1.1 milliequivalent/kg; Activity [6]: 0.23 milliequivalent/kg; Activity [7]: 1.5 milliequivalent/kg; Activity [8]: 9 mL/kg
CC(=O)Nc1cc(C(=O)O)cc(NCc2ccccc2)c1C(=O)c1ccccc1	0.4	0.4	6	0.21		Activity [9]: 0.58 milliequivalent/kg; Activity [10]: 22 mL/kg; Activity [11]: 1.7 milliequivalent/kg; Activity [12]: 2.2 milliequivalent/kg
CC(=O)Nc1cc(C(=O)O)cc(NCc2ccccc2)c1Oc1ccccc1	1.4	2.1	11	0.55		Activity [9]: 0.8 milliequivalent/kg; Activity [10]: 27 mL/kg; Activity [11]: 2.8 milliequivalent/kg; Activity [12]: 3.8 milliequivalent/kg
CCCOc1cc(C(=O)O)cc(NC=O)c1C(=O)c1ccccc1	2	1.2	10	0.52		
CCNc1cc(C(=O)O)cc(OCc2ccccc2)c1C(=O)c1ccccc1					inactive	Activity ([1]; Canis lupus familiaris, Urine): inactive; Activity ([2]; Canis lupus familiaris, Urine): inactive; Activity ([4]; Canis lupus familiaris, Urine): inactive
CC(=O)Nc1cc(C(=O)O)cc(OCc2ccccc2)c1C(=O)c1ccccc1	1.3	3	14	0.45		
O=C(CCl)Nc1cc(C(=O)O)cc(OCc2ccccc2)c1C(=O)c1ccccc1					inactive	
C=CCSc1cc(C(=O)O)cc(NC=O)c1C(=O)c1ccccc1					inactive	
CCCCOc1cc(C(=O)O)cc(NC(C)=O)c1C(=O)c1ccccc1						Activity [13]: 2.5 milliequivalent/kg; Activity [14]: 2.1 milliequivalent/kg; Activity [15]: 0.53 milliequivalent/kg; Activity [16]: 18 mL/kg
O=CNc1cc(C(=O)O)cc(SCc2ccccc2)c1Oc1ccccc1					inactive	
CCCCSc1cc(C(=O)O)cc(NC=O)c1C(=O)c1ccccc1	2.3		21	0.65		Activity [17]: 2.1 milliequivalent/kg; Activity [18]: 17 mL/kg; Activity [19]: 0.28 milliequivalent/kg; Activity [20]: 0.6 milliequivalent/kg; Activity [21]: 0.5 milliequivalent/kg
CCN(C=O)c1cc(C(=O)O)cc(OCc2ccccc2)c1C(=O)c1ccccc1					inactive	Activity ([1]; Canis lupus familiaris, Urine): inactive; Activity ([2]; Canis lupus familiaris, Urine): inactive; Activity ([4]; Canis lupus familiaris, Urine): inactive
CC(C)CCSc1cc(C(=O)O)cc(NC=O)c1C(=O)c1ccccc1						Activity [13]: 1.9 milliequivalent/kg; Activity [14]: 1.6 milliequivalent/kg; Activity [15]: 0.39 milliequivalent/kg; Activity [16]: 15 mL/kg
O=C(O)c1cc(NC(=O)c2ccccc2)c(C(=O)c2ccccc2)c(OCc2ccccc2)c1					inactive	
